Here are results for 40 compounds from US12389911B2, “Benzimidazole compound or salt thereof, agricultural and horticultural insecticidal and acaricidal agent containing said compound, and method for using same” (NIHON NOHYAKU CO., LTD., priority 2019, dated 2025).

Data set [1] deals with Green peach aphid (Myzus persicae). Description: Test for control efficacy on green peach aphid (foliar application on Chinese cabbage). The data set is classed as in vivo. To be noted: 500 ppm, foliar application to potted Chinese cabbage, 6 days after application. An excerpt:
Test for Control Efficacy on Green Peach Aphid (Myzus persicae) Chinese cabbage plants were planted in plastic pots (diameter: 8 cm, height: 8 cm), green peach aphids were propagated on the plants, and the number of surviving Green peach aphids in each pot was counted. The benzimidazole compounds represented by the general formula (1) of the present invention or salts thereof were separately dispersed in water and diluted to 500 ppm. The agrochemical dispersions were applied to the foliage of the potted Chinese cabbage plants. After the plants were air-dried, the pots were kept in a greenhouse. At 6 days after the foliar application, the number of surviving Green peach aphids on the Chinese cabbage plant in each pot was counted, the control rate was calculated according to the formula shown below, and the control efficacy was evaluated according to the criteria shown below. Control rate=100−{(T×Ca)/(Ta×C)}×100 [Expression 1] Ta: the number of survivors before the foliar application in a treatment plot T: the number of survivors after the foliar application in a treatment plot Ca: the number of survivors before the foliar application in a non-treatment plot C: the number of survivors after the foliar application in a non-treatment plot Criteria • A: the control rate is 100%. • B: the control rate is 90 to 99%. • C: the control rate is 80 to 89%. • D: the control rate is 50 to 79%.

For data set [2], the system named is Two-spotted spider mite (Tetranychus urticae). Nature of the data set: Acaricidal action on two-spotted spider mite (kidney bean leaf disk spray). In kind it is in vivo. Particulars: 500 ppm, adult females, 25° C., two days after treatment. As to the method:
Acaricidal Action on Two-Spotted Spider Mite (Tetranychus urticae)
Leaf disk having a diameter of 2 cm was prepared by leaves of kidney bean, and the leaf disk was placed on the wetted filter paper. Adult hens of two-spotted spider mite were inoculated on the wetted filter paper, and then 50 ml of an agrochemical dispersion, prepared by diluting a formulation containing the benzimidazole compound represented by the general formula (1) of the present invention or salt thereof as an active ingredient to adjust each of the concentrations to 500 ppm, was sprayed on turntable uniformly. After the spraying, it was allowed to stand in a thermostatic chamber at 25° C. Two days after the treatment of an agrochemical dispersion, the dead mites were counted, the corrected mortality rate was calculated according to the formula shown below, and the acaricidal efficacy was evaluated according to the criteria of Test Example 2. This test was conducted in duplicate using 10 adult hens of two-spotted spider per plot. Corrected mortality(%)=(Number of dead mites in a non-treatment plot−Number of dead mites in a treatment plot)/(Number of dead mites in a non-treatment plot)×100 [Expression 4]

Turning to `CCCCCCCCc1cn(-c2nc3ccccc3n2S(=O)(=O)CC)cn1` [Compound 1-4], in data set [1], the “control efficacy (control rate), activity level” value (shortened to “control efficacy (control rate)”) is “D or higher”. Further, the “acaricidal efficacy (corrected mortality rate), activity level” value (“acaricidal efficacy” for short) in data set [2] is given as “D or higher”.

Turning to `CCCCCC/C=C\c1cn(-c2nc3ccccc3n2S(=O)(=O)CC)cn1` [Compound 1-6], the “control efficacy (control rate)” value in data set [1] was “D or higher”. Besides, the “acaricidal efficacy” value in data set [2] is “D or higher”.

`CCS(=O)(=O)n1c(-n2cnc(Cc3ccccc3)c2)nc2ccccc21` [Compound 1-8]: the “control efficacy (control rate)” value in data set [1] is reported as “D or higher”. The “acaricidal efficacy” value in data set [2] was “D or higher”.

`CCS(=O)(=O)n1c(-n2cnc(CCc3ccc(Cl)cc3)c2)nc2ccccc21` [Compound 1-12]: the “control efficacy (control rate)” value in data set [1] is on record as “D or higher”. For the same compound, the “acaricidal efficacy” value in data set [2] is listed as “D or higher”.

For the compound `CCS(=O)(=O)n1c(-n2cnc(CCc3ccc(Cl)cc3Cl)c2)nc2ccccc21` [Compound 1-13], the “control efficacy (control rate)” value in data set [1] is given as “D or higher”. Also, the “acaricidal efficacy” value in data set [2] is “D or higher”.

As to `CCS(=O)(=O)n1c(-n2cnc(C(F)(F)C(F)(F)C(F)(F)C(F)(F)F)c2)nc2ccccc21` [Compound 1-27], the “control efficacy (control rate)” value in data set [1] was “D or higher”. Further, the “acaricidal efficacy” value in data set [2] is recorded as “D or higher”.

As to `CCS(=O)(=O)n1c(-n2cnc(C(=O)Nc3ccccc3)c2)nc2ccccc21` [Compound 1-30], in data set [1], the “control efficacy (control rate)” value is given as “D or higher”.

Consider `CCS(=O)(=O)n1c(-n2cnc(COCC(F)(F)C(F)(F)C(F)(F)F)c2)nc2ccccc21` [Compound 1-32], for which, in data set [1], the “control efficacy (control rate)” value was “D or higher”. Also, the “acaricidal efficacy” value in data set [2] is listed as “D or higher”.

In the case of `CCS(=O)(=O)n1c(-n2cc(C#Cc3ccc(C(F)(F)F)cc3)cn2)nc2ccccc21` [Compound 2-8], in data set [1], the “control efficacy (control rate)” value is “D or higher”. Besides, the “acaricidal efficacy” value in data set [2] is “D or higher”.

Turning to `CCS(=O)(=O)n1c(-n2cc(C(F)(C(F)(F)F)C(F)(F)F)cn2)nc2ccccc21` [Compound 2-10], the “control efficacy (control rate)” value in data set [1] is reported as “D or higher”. Besides, the “acaricidal efficacy” value in data set [2] is reported as “D or higher”.

On to `CCS(=O)(=O)n1c(-n2cc(C(=O)OC(C)(C)C)cn2)nc2ccccc21` [Compound 2-11], for which the “control efficacy (control rate)” value in data set [1] was “D or higher”. Also, the “acaricidal efficacy” value in data set [2] is on record as “D or higher”.

As for `CCS(=O)(=O)n1c(-n2cc(Cl)c(C(F)(F)F)n2)nc2ccccc21` [Compound 2-13], in data set [1], the “control efficacy (control rate)” value is recorded as “D or higher”. Also, in data set [2], the “acaricidal efficacy” value is listed as “D or higher”.

On to `CS(=O)(=O)n1c(-n2cc(I)c(C(F)(F)F)n2)nc2ccccc21` [Compound 2-15], for which the “control efficacy (control rate)” value in data set [1] was “D or higher”. Also, the “acaricidal efficacy” value in data set [2] is “D or higher”.

As to `CCc1cn(-c2nc3ccccc3n2S(=O)(=O)CC)nc1C(F)(F)F` [Compound 2-19], the “control efficacy (control rate)” value in data set [1] is “D or higher”. The “acaricidal efficacy” value in data set [2] was “D or higher”.

Consider `CCS(=O)(=O)n1c(-n2cc(C3CC3)c(C(F)(F)F)n2)nc2ccccc21` [Compound 2-20], for which the “control efficacy (control rate)” value in data set [1] is recorded as “D or higher”. In addition, the “acaricidal efficacy” value in data set [2] was “D or higher”.

As for `CCS(=O)(=O)n1c(-n2cc(/C=C/C(=O)OC(C)(C)C)c(C(F)(F)F)n2)nc2ccccc21` [Compound 2-24], the “control efficacy (control rate)” value in data set [1] is recorded as “D or higher”. Further, the “acaricidal efficacy” value in data set [2] is listed as “D or higher”.

Regarding `CCOC(=O)c1cn(-c2nc3ccccc3n2S(=O)(=O)CC)nc1C(F)(F)F` [Compound 2-26], in data set [1], the “control efficacy (control rate)” value is “D or higher”. Besides, the “acaricidal efficacy” value in data set [2] was “D or higher”.

As to `CCS(=O)(=O)n1c(-n2cc(C(=O)OCC(C)(C)C)c(C(F)(F)F)n2)nc2ccccc21` [Compound 2-28], the “control efficacy (control rate)” value in data set [1] is “D or higher”. Also, the “acaricidal efficacy” value in data set [2] is “D or higher”.

Regarding `CCS(=O)(=O)n1c(-n2cc(Br)c(Br)n2)nc2ccccc21` [Compound 2-34], the “control efficacy (control rate)” value in data set [1] is “D or higher”. Moreover, the “acaricidal efficacy” value in data set [2] was “D or higher”.

With `CCS(=O)(=O)n1c(-n2cc(Cl)c(OCC(F)(F)C(F)(F)F)n2)nc2ccccc21` [Compound 2-39], the “control efficacy (control rate)” value in data set [1] is “D or higher”. Further, in data set [2], the “acaricidal efficacy” value is “D or higher”.

For the compound `CCS(=O)(=O)n1c(-n2cc(Br)c(OCC(F)(F)C(F)(F)F)n2)nc2ccccc21` [Compound 2-40], in data set [1], the “control efficacy (control rate)” value is “D or higher”. Also, in data set [2], the “acaricidal efficacy” value is “D or higher”.

In the case of `CCS(=O)(=O)n1c(-n2ccc(C(=O)OC(C)(C)C)n2)nc2ccccc21` [Compound 2-43], the “control efficacy (control rate)” value in data set [1] is “D or higher”. In data set [2], the “acaricidal efficacy” value is recorded as “D or higher”.

For the compound `CCS(=O)(=O)n1c(-n2cc(C(=O)OC(C)(C)C)c(C(F)F)n2)nc2ccccc21` [Compound 2-51], in data set [1], the “control efficacy (control rate)” value is listed as “D or higher”. For the same compound, the “acaricidal efficacy” value in data set [2] was “D or higher”.

Take `CCS(=O)(=O)n1c(-n2cc(C#CCOC(=O)C(C)(C)C)c(C(F)(F)F)n2)nc2ccccc21` [Compound 2-132]: the “acaricidal efficacy” value in data set [2] was “D or higher”.

With `CCS(=O)(=O)n1c(-n2cc(C#CC(C)(C)C)c(C(=O)OC(C)(C)C)n2)nc2ccccc21` [Compound 2-133], in data set [2], the “acaricidal efficacy” value is reported as “D or higher”.

Regarding `CCS(=O)(=O)n1c(-n2cc(CCCOC(=O)C(C)(C)C)c(C(F)(F)F)n2)nc2ccccc21` [Compound 2-134], in data set [2], the “acaricidal efficacy” value is recorded as “D or higher”.

Consider `CCS(=O)(=O)n1c(-n2cc(CCC(=O)OC(C)(C)C)c(C(=O)OC(C)(C)C)n2)nc2ccccc21` [Compound 2-135], for which the “acaricidal efficacy” value in data set [2] is reported as “D or higher”.

For `CCS(=O)(=O)n1c(-n2cc(Br)c(OC(F)(F)C(=O)N(C)C)n2)nc2ccccc21` [Compound 2-136], the “acaricidal efficacy” value in data set [2] was “D or higher”.

As to `CCS(=O)(=O)n1c(-n2cc(CCC(C)(C)C)c(C(=O)OC(C)(C)C)n2)nc2ccccc21` [Compound 2-137], the “acaricidal efficacy” value in data set [2] is listed as “D or higher”.

With `CCS(=O)(=O)n1c(-n2cc(C#CCOCC(F)(F)F)c(C(F)(F)F)n2)nc2ccccc21` [Compound 2-138], the “acaricidal efficacy” value in data set [2] was “D or higher”.

In the case of `CCS(=O)(=O)n1c(-n2cc(C(=O)OC(C)(C)C)c(OC(F)F)n2)nc2ccccc21` [Compound 2-139], the “acaricidal efficacy” value in data set [2] was “D or higher”.

In the case of `CCS(=O)(=O)n1c(-n2cc(SCC(F)(F)C(F)(F)F)cn2)nc2ccccc21` [Compound 2-141], the “acaricidal efficacy” value in data set [2] is “D or higher”.

In the case of `CCS(=O)(=O)n1c(-n2cc(C(=O)CC(C)C)c(CC(C)C)n2)nc2ccccc21` [Compound 2-142], in data set [2], the “acaricidal efficacy” value is recorded as “D or higher”.

In the case of `CCOC(=O)/C=C/c1nn(-c2nc3ccccc3n2S(=O)(=O)CC)cc1C(=O)OCC` [Compound 2-143], in data set [2], the “acaricidal efficacy” value is “D or higher”.

Turning to `CCS(=O)(=O)n1c(-n2cc(C(=O)OC(C)(C)C)c(/C=C/C(=O)OC(C)(C)C)n2)nc2ccccc21` [Compound 2-144], in data set [2], the “acaricidal efficacy” value is on record as “D or higher”.

With `CCS(=O)(=O)n1c(-n2cc(C(=O)OC(C)(C)C)c(C#CC(C)(C)C)n2)nc2ccccc21` [Compound 2-145], the “acaricidal efficacy” value in data set [2] is recorded as “D or higher”.

Consider `CCS(=O)(=O)n1c(-n2cnc(C(F)(F)C(F)(F)F)n2)nc2ccccc21` [Compound 3-2], for which, in data set [2], the “acaricidal efficacy” value is recorded as “D or higher”.

For `CCS(=O)(=O)n1c(-n2cnc(SC)n2)nc2ccccc21` [Compound 3-4], the “acaricidal efficacy” value in data set [2] is “D or higher”.

Turning to `CCS(=O)(=O)n1c(-n2ccc(C(=O)OC(C)(C)C)c2)nc2ccccc21` [Compound 7-1], in data set [2], the “acaricidal efficacy” value is on record as “D or higher”.

In the case of `CCS(=O)(=O)n1c(-n2cc(C(=O)OC)c(C(=O)OC)c2)nc2ccccc21` [Compound 7-6], the “acaricidal efficacy” value in data set [2] was “D or higher”.
